Measurements taken from patent US11530218B2, “Spiro compounds as inhibitors of KRAS” (Incyte Corporation, priority 2020, dated 2022).

Experiments:
KRAS G12C = KRAS G12C (Homo sapiens, UniProt P01116, G12C); test: KRAS G12C GDP-GTP exchange assay (bodipy-GDP/GppNHp, SOS1); assay type: biochemical; conditions: bodipy-loaded KRAS G12C 2.5 nM, 2 hours pre-incubation with inhibitor, 2 hours exchange; read-out: G12C_exchange (KRAS_G12C exchange assay IC50)
Procedure: (§1) The inhibitor potency of the exemplified compounds was determined in a fluorescence based guanine nucleotide exchange assay, which measures the exchange of bodipy-GDP (fluorescently labeled GDP) for GppNHp (Non-hydrolyzable GTP analog) to generate the active state of KRAS in the presence of SOS1 (guanine nucleotide exchange factor). Inhibitors were serially diluted in DMSO and a volume of 0.1 μL was transferred to the wells of a black low volume 384-well plate. 5 μL/well volume of bodipy-loaded KRAS G12C diluted to 5 nM in assay buffer (25 mM Hepes pH 7.5, 50 mM NaCl, 10 mM MgCl2 and 0.01% Brij-35) was added to the plate and pre-incubated with inhibitor for 2 hours at ambient temperature. Appropriate controls (enzyme with no inhibitor or with a G12C inhibitor (AMG-510)) were included on the plate. The exchange was initiated by the addition of a 5 μL/well volume containing 1 mM GppNHp and 300 nM SOS1 in assay buffer. The 10 μL/well reaction concentration of the bodipy-loaded KRAS G12C, GppNHp, and SOS1 were 2.5 nM, 500 uM, and 150 nM, respectively. The reaction plates were incubated at ambient temperature for 2 hours, a time estimated for complete GDP-GTP exchange in the absence of inhibitor. For the KRAS G12D and G12V mutants, similar guanine nucleotide exchange assays were used with 2.5 nM as final concentration for the bodipy loaded KRAS proteins and with 4 hours and 3 hours incubation after adding GppNHp-SOS1 mixture for G12D and G12V respectively. A cyclic peptide described to selectively bind G12D mutant (Sakamoto et al., BBRC 484.3 (2017), 605-611) or internal compounds with confirmed binding were used as positive controls in the assay plates. Fluorescence intensities were measured on a PheraStar plate reader instrument (BMG Labtech) with excitation at 485 nm and emission at 520 nm.
(§2) Either GraphPad prism or XLfit was used to analyze the data. The IC50 values were derived by fitting the data to a four parameter logistic equation producing a sigmoidal dose-response curve with a variable Hill coefficient. Prism equation: Y=Bottom+(Top−Bottom)/(1+10^((Log IC50−X)*Hill slope)); XLfit equation: Y=(A+((B−A)/(1+((X/C)^D)))) where X is the logarithm of inhibitor concentration and Y is the response.

[1] = test system: KRAS G12C (MIA PaCa-2 cells); test: KRAS_G12C cellular pERK HTRF assay; assay type: cell-based, human; parameters: G12C_pERK (KRAS_G12C pERK assay IC50): scale not given here; conditions: cells incubated with compound 4 hours; for IC50: Homo sapiens, MIA PaCa-2, read-out: G12C_pERK (KRAS_G12C pERK assay IC50)
Procedure: MIA PaCa-2 (KRAS G12C; ATCC® CRL-1420), A427 (KRAS G12D; ATCC® HTB53), HPAF-II (KRAS G12D; ATCC® CRL-1997) and NCI-H838 (KRAS WT; ATCC® CRL-5844) cells are purchased from ATCC and maintained in RPMI 1640 media supplemented with 10% FBS (Gibco/Life Technologies). The cells are plated at 5000 cells per well (8 uL) into Greiner 384-well low volume, flat-bottom, tissue culture treated white plates and incubated overnight at 37° C., 5% CO2. The next morning, test compound stock solutions are diluted in media at 3x the final concentration, and 4 uL are added to the cells. The plate is mixed by gentle rotation for 30 seconds (250 rpm) at room temperature. The cells are incubated with the KRAS G12C and G12D compounds for 4 hours or 2 hours respectively at 37° C., 5% CO2.
4 uL of 4× lysis buffer with blocking reagent (1:25) (Cisbio) are added to each well and plates are rotated gently (300 rpm) for 30 minutes at room temperature. 4 uL per well of Cisbio anti Phospho-ERK 1/2 d2 is mixed with anti Phospho-ERK 1/2 Cryptate (1:1) are added to each well, mixed by rotation and incubated overnight in the dark at room temperature. Plates are read on the Pherastar plate reader at 665 nm and 620 nm wavelengths. IC50 determination is performed by fitting the curve of inhibitor percent inhibition versus the log of the inhibitor concentration using the GraphPad Prism 7 software.

KRAS G12D = KRAS G12D (Homo sapiens, UniProt P01116, G12D); test: KRAS G12D GDP-GTP exchange assay (bodipy-GDP/GppNHp, SOS1); assay type: biochemical; conditions: bodipy loaded KRAS G12D 2.5 nM, 4 hours incubation after GppNHp-SOS1; read-out: G12D_exchange (KRAS_G12D exchange assay IC50)
Procedure: as §1, §2

KRAS G12C, sequence (P01116 1-188 isoform P01116-2 G12C): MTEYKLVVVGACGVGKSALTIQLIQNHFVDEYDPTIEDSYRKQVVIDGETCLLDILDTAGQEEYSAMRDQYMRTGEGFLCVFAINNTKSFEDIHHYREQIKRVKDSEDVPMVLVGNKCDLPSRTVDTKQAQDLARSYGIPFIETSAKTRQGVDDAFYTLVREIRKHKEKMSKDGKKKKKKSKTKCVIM
KRAS G12D, sequence (P01116 1-188 isoform P01116-2 G12D): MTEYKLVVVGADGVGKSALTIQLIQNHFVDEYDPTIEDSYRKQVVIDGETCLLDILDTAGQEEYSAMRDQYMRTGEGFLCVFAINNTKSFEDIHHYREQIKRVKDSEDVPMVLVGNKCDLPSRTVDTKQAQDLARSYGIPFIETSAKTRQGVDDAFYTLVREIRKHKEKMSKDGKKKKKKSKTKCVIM

SMILES	IC50 (KRAS G12D) [µM]	IC50 [1] [µM]	also measured
C=CC(=O)N1CCCC2(C1)C(=O)Nc1c(OC[C@@H]3CCCN3C)nc3c(F)c(-c4cc(O)cc5ccccc45)c(Cl)cc3c12 (mixture of isomers) [Example 15, 1-Acryloyl-8′-chloro-6′-fluoro-7′-(3-hydroxynaphthalen-1-yl)-4′-(((S)-1-methylpyrrolidin-2-yl)methoxy)spiro[piperidine-3,1′-pyrrolo[2,3-c]quinolin]-2′(3′H)-one]			IC50 (KRAS G12C): 1 to 5 µM
C=CC(=O)N1CCC2(C1)Nc1c(cnc3c(F)c(-c4c(C)ccc5[nH]ncc45)c(Cl)cc13)NC2=O (racemic) [Example 9, 1′-Acryloyl-9-chloro-7-fluoro-8-(5-methyl-1H-indazol-4-yl)-1,4-dihydro-3H-spiro[pyrazino[2,3-c]quinoline-2,3′-pyrrolidin]-3-one]			IC50 (KRAS G12C): 1 to 5 µM
C=CC(=O)N1CCC2(CC1)C(=O)N(C)c1c(OC[C@@H]3CCCN3C)nc3c(F)c(-c4cc(O)cc5ccccc45)c(Cl)cc3c12 (single isomer, unassigned) [Example 16a]			G12C_pERK (KRAS_G12C pERK assay IC50) [1]: ††
CN(C)C1CN(c2nc3c(F)c(-c4cc(O)cc5ccccc45)c(CCCC#N)cc3c3c2NC(=O)C32CCNC2)C1 (single isomer, unassigned) [Example 30b, 4-(4′-(3-(dimethylamino)azetidin-1-yl)-6′-fluoro-7′-(3-hydroxynaphthalen-1-yl)-2′-oxo-2′,3′-dihydrospiro[pyrrolidine-3,1′-pyrrolo[2,3-c]quinolin]-8′-yl)butanenitrile]	1 to 5		
CN(C)C1CN(c2nc3c(F)c(-c4cc(O)cc5ccccc45)c(CCCC#N)cc3c3c2NC(=O)C32CNCCO2)C1 (single isomer, unassigned) [Example 31b, 4-(4′-(3-(dimethylamino)azetidin-1-yl)-6′-fluoro-7′-(3-hydroxynaphthalen-1-yl)-2′-oxo-2′,3′-dihydrospiro[morpholine-2,1′-pyrrolo[2,3-c]quinolin]-8′-yl)butanenitrile]	5 to 50		
CN1CCC[C@H]1COc1nc2c(F)c(-c3cc(O)cc4ccccc34)c(CCCC#N)cc2c2c1NC(=O)C21CCCNC1 (single isomer, unassigned) [Example 32b]	1 to 5		
CN1C(=O)C2(CCCNC2)c2c1c(OC[C@@H]1CCCN1C)nc1c(F)c(-c3cc(O)cc4ccccc34)c(CCCC#N)cc21 (single isomer, unassigned) [Example 33b]	1 to 5		
CN1CCC[C@H]1COc1nc2c(F)c(-c3cc(O)cc4ccccc34)c(CCCC#N)cc2c2c1N(CCO)C(=O)C21CCCNC1 (single isomer, unassigned) [Example 34b]	1 to 5		
CN1CCC[C@H]1COc1nc2c(F)c(-c3cc(O)cc4ccccc34)c(CCCC#N)cc2c2c1N(CC#N)C(=O)C21CCCNC1 (single isomer, unassigned) [Example 36a]	1 to 5		
CN1CCC[C@H]1COc1nc2c(F)c(-c3cc(O)cc4ccccc34)c(CCCC#N)cc2c2c1N(CC(N)=O)C(=O)C21CCCNC1 (single isomer, unassigned) [Example 37b]	1 to 5		
C=CC(=O)N1CCC2(CC1)Nc1c(cnc3c(F)c(-c4c(O)cccc4F)c(Cl)cc13)NC2=O [Example 1, 1-Acryloyl-9′-chloro-7′-fluoro-8′-(2-fluoro-6-hydroxyphenyl)-1′,4′-dihydro-3′H-spiro[piperidine-4,2′-pyrazino[2,3-c]quinolin]-3′-one]		1 to 5	
C=CC(=O)N1CCC2(CC1)Nc1c(cnc3c(F)c(-c4cc(O)ccc4Cl)c(Cl)cc13)NC2=O [Example 2, 1-Acryloyl-9′-chloro-8′-(2-chloro-5-hydroxyphenyl)-7′-fluoro-1′,4′-dihydro-3′H-spiro[piperidine-4,2′-pyrazino[2,3-c]quinolin]-3′-one]		1 to 5	
C=CC(=O)N1CCC2(CC1)Nc1c(cnc3c(F)c(-c4cccc5[nH]nc(C)c45)c(Cl)cc13)NC2=O [Example 3, 1-Acryloyl-9′-chloro-7′-fluoro-8′-(3-methyl-1H-indazol-4-yl)-1′,4′-dihydro-3′H-spiro[piperidine-4,2′-pyrazino[2,3-c]quinolin]-3′-one]			IC50 (KRAS G12C): 1 to 5 µM
C=CC(=O)N1CC2(C1)Nc1c(cnc3c(F)c(-c4c(O)cccc4F)c(Cl)cc13)NC2=O [Example 6, 1-Acryloyl-9′-chloro-7′-fluoro-8′-(2-fluoro-6-hydroxyphenyl)-1′,4′-dihydro-3′H-spiro[azetidine-3,2′-pyrazino[2,3-c]quinolin]-3′-one]		1 to 5	
C=CC(=O)N1CC2(C1)Nc1c(cnc3c(F)c(-c4c(C)ccc5[nH]ncc45)c(Cl)cc13)NC2=O [Example 7, 1-Acryloyl-9′-chloro-7′-fluoro-8′-(5-methyl-1H-indazol-4-yl)-1′,4′-dihydro-3′H-spiro[azetidine-3,2′-pyrazino[2,3-c]quinolin]-3′-one]		1 to 5	
C=CC(=O)N1CCC2(C1)Nc1c(cnc3c(F)c(-c4c(O)cccc4F)c(Cl)cc13)NC2=O (stereo not drawn) [Example 8, 1′-Acryloyl-9-chloro-7-fluoro-8-(2-fluoro-6-hydroxyphenyl)-1,4-dihydro-3H-spiro[pyrazino[2,3-c]quinoline-2,3′-pyrrolidin]-3-one]		1 to 5	
C=CC(=O)N1CCC2(CC1)Nc1c(c(OCCN3CCCCC3)nc3c(F)c(-c4c(O)cccc4F)c(Cl)cc13)NC2=O [Example 12, 1-Acryloyl-9′-chloro-7′-fluoro-8′-(2-fluoro-6-hydroxyphenyl)-5′-(2-(piperidin-1-yl)ethoxy)-1′,4′-dihydro-3′H-spiro[piperidine-4,2′-pyrazino[2,3-c]quinolin]-3′-one]		1 to 5	
C=CC(=O)N1CCC2(C1)C(=O)Nc1c(OC[C@@H]3CCCN3C)nc3c(F)c(-c4cc(O)cc5ccccc45)c(Cl)cc3c12 (stereo partly drawn) [Example 14, 1-Acryloyl-8′-chloro-6′-fluoro-7′-(3-hydroxynaphthalen-1-yl)-4′-(((S)-1-methylpyrrolidin-2-yl)methoxy)spiro[pyrrolidine-3,1′-pyrrolo[2,3-c]quinolin]-2′(3′H)-one]			G12C_pERK (KRAS_G12C pERK assay IC50) [1]: ††
C=CC(=O)N1CC2(C1)Nc1c(c(OC[C@@H]3CCCN3C)nc3c(F)c(-c4c(O)cccc4F)c(Cl)cc13)NC2=O [Example 18, 1-Acryloyl-9′-chloro-7′-fluoro-8′-(2-fluoro-6-hydroxyphenyl)-5′-(((S)-1-methylpyrrolidin-2-yl)methoxy)-1′,4′-dihydro-3′H-spiro[azetidine-3,2′-pyrazino[2,3-c]quinolin]-3′-one]		1 to 5	
CN(C)C1CN(c2nc3c(F)c(-c4cc(O)cc5ccccc45)c(Cl)cc3c3c2NC(=O)C32CC(N)C2)C1 (stereo not drawn) [Example 22, 3-amino-8′-chloro-4′-(3-(dimethylamino)azetidin-1-yl)-6′-fluoro-7′-(3-hydroxynaphthalen-1-yl)spiro[cyclobutane-1,1′-pyrrolo[2,3-c]quinolin]-2′(3′H)-one]	5 to 50		
CN(C)C1CN(c2nc3c(F)c(-c4cc(O)cc5ccccc45)c(CCC#N)cc3c3c2NC(=O)C32CNC2)C1 [Example 29, 3-(4′-(3-(dimethylamino)azetidin-1-yl)-6′-fluoro-7′-(3-hydroxynaphthalen-1-yl)-2′-oxo-2′,3′-dihydrospiro[azetidine-3,1′-pyrrolo[2,3-c]quinolin]-8′-yl)propanenitrile]	1 to 5		
